These results are taken from US20100099917A1, “Integrin modulators and methods for their use” (Billings Pharmaceuticals, Inc., priority 2004, published 2010).

Assay [1] has as its system HIV-1RF-infected H9 cells. Put plainly: Inhibition of HIV-induced syncytium formation (uninfected H9 cells with HIV-1RF-infected H9 cells). Conditions: for IC100 of syncytium formation: H9 + HIV-1RF-infected H9 cells, 6 to 15 hours at 37° C. It is filed as cell-based. As for the experimental part:
The purified enantiomers were taken up in DMSO at a concentration of 10 mg/mL. Dilutions were made in RPMI 1640 medium containing 10% fetal calf serum and 10 mM HEPES (cRPMI). H9 cells (ATCC, Rockville, Md.) infected with HIV-1RF (NIH AIDS Repository, Rockville, Md.) and uninfected H9 cells were washed with cRPMI and resuspended in cRPMI at a density of 4×10^6 per mL. Uninfected cells (50 μL) were mixed with serial dilutions of the compounds (100 μL) and incubated at 37° C. for 30 min before adding and mixing 50 μL of infected H9 cells. The plates were incubated at 37° C. for 6 to 15 hours before scoring syncytium formation.
For all the curves, the effect of ajoene enantiomers and enantiomer mixtures on the fusion of cultured, intact H9 cells with HIV-1RF-infected H9 cells is disclosed. The vertical graph axis expresses the maximum amount of syncytia formed in the absence of the compounds (100 percent), while the points on the curves represent percentages of such an amount of syncytia formed in the presence of varying concentrations of the compounds and compound mixtures (micromoles per liter).

The target of another assay is T1, VLA-4 (Homo sapiens, UniProt P05556+P13612).
T1 construct: VLA-4-mediated adhesion of enzyme-labeled PM1 cells to VCAM-1-coated artificial substrata; host or cells: PM1 (printed 'PMI') cells
Description: Inhibition of VLA-4-mediated adhesion of HRP-labeled PMI cells to VCAM-1-coated substrata. It is filed as cell-based. The procedure: In addition, the present invention provides methods whereby the integrin-modulating activity of DDCs may be assessed. One such method involves VLA-4-mediated adhesion of enzyme-labeled PM1 cells to VCAM-1-coated artificial substrata. Specifically, the cells are exposed to isolated DDC enantiomers (or the vehicle thereof) and allowed to adhere or not adhere to immobilized VCAM-1. Thereafter, the adherent cells are lysed and, following addition of the substrate of the enzyme and incubation, the activity of the enzyme is measured spectrophotometrically. The value of this parameter, characterizing the number of the adherent cells, is inversely proportional to integrin-modulating activity of the compound. Another such method is based on the inhibition of HIV-mediated syncytium formation, a phenomenon known to depend on integrin-mediated functions. Yet another method is based on the inhibition of cell-to-cell HIV transmission, a process also dependent on integrin-mediated functions. Modulating activity of integrin-mediated functions by the enantiomers was compared in a well-defined system of inhibition of VLA-4-mediated adhesion of enzyme-labeled PMI cells (NIH AIDS Repository, Rockville, Md.) to VCAM-1-coated artificial substrata. […] The reaction was stopped with 0.5 M H2SO4, and the optical density of the wells was read at 450 nm. […]

The subject of assay [2] is U937 cells infected with HIV-1 RT. Put plainly: Inhibition of syncytium formation (MT2 cells with HIV-1 RT-infected U937 cells). Conditions: MT2 + HIV-1 RT-infected U937 cells, 13 hours. It is filed as cell-based.
The test system of assay [3] is adhesion-dependent processes. Conditions: mixtures of E- and Z-isomers; cited from earlier work.
The target of assay [4] is platelet integrin, GP IIb/IIIa (Homo sapiens, UniProt P05106+P08514). Conditions: allosteric inactivation of GP IIb/IIIa; cited from earlier work.

SMILES strings stand for the structures.

T1 sequence (P13612 34-1032): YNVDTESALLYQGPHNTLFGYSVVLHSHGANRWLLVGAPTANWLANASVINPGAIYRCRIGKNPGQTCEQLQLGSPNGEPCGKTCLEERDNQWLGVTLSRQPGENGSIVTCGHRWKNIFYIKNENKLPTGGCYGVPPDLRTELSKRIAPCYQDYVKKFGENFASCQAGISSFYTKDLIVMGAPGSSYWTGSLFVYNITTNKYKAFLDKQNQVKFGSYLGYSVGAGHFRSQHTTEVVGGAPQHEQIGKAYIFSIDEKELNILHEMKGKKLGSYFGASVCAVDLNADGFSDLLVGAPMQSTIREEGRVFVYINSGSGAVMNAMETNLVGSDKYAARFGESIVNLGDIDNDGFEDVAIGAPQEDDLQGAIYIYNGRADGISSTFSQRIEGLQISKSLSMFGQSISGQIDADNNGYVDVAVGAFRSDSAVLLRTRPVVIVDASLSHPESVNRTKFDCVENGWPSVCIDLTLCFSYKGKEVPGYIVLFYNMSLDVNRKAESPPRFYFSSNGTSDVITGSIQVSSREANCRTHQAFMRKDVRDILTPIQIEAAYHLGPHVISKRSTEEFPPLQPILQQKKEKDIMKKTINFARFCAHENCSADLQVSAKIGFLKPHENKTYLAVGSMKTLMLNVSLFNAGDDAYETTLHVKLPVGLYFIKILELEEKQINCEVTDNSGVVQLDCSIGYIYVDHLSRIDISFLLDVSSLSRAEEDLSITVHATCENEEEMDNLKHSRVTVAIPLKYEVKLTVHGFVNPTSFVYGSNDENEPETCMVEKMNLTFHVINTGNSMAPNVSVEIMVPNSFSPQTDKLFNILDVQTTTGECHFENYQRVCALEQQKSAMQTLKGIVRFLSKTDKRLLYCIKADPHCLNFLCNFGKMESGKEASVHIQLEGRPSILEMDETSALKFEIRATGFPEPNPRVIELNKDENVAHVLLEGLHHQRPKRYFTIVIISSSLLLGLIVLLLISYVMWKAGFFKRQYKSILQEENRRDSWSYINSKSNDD
T1 sequence (P05556 21-798): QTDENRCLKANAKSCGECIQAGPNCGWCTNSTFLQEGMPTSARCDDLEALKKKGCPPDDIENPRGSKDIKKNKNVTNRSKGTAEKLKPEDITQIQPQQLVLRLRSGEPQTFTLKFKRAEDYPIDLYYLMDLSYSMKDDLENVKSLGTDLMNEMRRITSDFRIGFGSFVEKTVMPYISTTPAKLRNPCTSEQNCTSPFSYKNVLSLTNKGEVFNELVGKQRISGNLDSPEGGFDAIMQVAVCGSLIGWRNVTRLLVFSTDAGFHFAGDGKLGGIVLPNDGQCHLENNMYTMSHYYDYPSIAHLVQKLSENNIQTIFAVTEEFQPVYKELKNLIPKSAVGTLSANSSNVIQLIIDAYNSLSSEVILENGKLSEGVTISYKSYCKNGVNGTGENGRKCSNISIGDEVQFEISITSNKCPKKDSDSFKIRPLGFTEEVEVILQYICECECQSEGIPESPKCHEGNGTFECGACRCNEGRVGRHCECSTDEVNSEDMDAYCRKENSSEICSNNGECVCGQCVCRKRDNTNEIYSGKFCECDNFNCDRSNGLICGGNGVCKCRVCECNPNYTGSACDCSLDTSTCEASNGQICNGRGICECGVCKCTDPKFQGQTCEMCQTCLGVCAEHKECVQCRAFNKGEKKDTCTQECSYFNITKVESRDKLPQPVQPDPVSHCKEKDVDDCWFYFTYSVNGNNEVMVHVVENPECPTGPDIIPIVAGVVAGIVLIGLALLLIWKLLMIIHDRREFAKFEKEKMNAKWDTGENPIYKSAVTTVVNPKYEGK
Chain of platelet integrin, GP IIb/IIIa (P08514 32-887 limits assumed): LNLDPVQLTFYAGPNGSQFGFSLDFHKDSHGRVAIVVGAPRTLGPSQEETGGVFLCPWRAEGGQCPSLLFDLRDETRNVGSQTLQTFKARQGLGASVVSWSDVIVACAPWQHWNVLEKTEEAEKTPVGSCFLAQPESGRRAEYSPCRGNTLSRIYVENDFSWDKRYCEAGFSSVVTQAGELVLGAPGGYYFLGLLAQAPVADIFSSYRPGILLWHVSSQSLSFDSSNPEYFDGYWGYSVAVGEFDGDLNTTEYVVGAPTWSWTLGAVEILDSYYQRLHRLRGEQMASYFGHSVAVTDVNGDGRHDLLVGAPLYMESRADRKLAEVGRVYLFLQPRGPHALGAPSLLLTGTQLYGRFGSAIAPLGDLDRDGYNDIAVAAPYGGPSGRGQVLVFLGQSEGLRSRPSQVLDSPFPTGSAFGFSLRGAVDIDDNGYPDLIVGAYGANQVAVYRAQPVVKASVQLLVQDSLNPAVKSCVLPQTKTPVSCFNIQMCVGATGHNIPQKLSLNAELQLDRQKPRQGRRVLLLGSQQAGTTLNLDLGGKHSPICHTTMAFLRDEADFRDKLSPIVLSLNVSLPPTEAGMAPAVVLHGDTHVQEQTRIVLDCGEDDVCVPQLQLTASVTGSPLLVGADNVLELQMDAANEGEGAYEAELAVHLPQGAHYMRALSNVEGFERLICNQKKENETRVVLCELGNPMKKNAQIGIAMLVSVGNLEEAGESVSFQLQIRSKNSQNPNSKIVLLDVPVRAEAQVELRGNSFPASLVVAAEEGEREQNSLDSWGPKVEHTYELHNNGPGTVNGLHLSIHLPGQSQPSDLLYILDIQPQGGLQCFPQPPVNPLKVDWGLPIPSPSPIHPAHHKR
Chain of platelet integrin, GP IIb/IIIa (P08514 891-1039 limits assumed): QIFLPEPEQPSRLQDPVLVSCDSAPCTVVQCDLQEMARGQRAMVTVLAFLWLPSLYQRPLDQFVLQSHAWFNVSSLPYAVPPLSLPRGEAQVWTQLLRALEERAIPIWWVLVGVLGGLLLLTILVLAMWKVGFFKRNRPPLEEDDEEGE
Chain of platelet integrin, GP IIb/IIIa (P05106 27-788): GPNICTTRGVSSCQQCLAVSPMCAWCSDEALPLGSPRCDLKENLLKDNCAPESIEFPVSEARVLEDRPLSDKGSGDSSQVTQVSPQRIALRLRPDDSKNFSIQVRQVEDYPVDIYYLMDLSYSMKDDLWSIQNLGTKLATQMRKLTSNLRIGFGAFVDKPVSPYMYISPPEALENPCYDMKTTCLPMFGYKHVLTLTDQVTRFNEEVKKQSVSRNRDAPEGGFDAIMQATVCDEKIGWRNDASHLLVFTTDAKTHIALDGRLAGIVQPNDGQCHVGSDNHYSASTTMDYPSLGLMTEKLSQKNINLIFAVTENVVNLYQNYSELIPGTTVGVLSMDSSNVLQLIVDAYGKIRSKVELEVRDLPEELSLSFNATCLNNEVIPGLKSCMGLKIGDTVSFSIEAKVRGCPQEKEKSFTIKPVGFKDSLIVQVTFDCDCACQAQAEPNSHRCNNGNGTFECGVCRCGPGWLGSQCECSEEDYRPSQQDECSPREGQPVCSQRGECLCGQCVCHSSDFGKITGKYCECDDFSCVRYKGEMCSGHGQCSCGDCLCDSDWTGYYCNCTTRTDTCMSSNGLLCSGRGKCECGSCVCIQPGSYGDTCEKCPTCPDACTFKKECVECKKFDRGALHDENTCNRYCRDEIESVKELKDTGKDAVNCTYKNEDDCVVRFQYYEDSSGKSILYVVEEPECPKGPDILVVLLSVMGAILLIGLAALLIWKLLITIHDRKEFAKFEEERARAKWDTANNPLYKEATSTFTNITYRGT

Regarding `C=CCSS/C=C/C[S+]([O-])CC=C` (racemic) [racemic (E)-ajoene, reference compound], the “IC100 of syncytium formation” value in assay [1] amounted to 50 micromoles per liter.
On the same count and under the same terms, the same measure for `C=CCSS/C=C\C[S+]([O-])CC=C` (stereo not drawn) [(Z)-(+) counterpart]: 50 micromoles per liter.
Turning to `C=CCSS/C=C\C[S+]([O-])CC=C` (stereo not drawn) [(Z)-(−)-enantiomer, (Z)-(−)-4,5,9-trithiadodeca-1,6,11-triene-9-oxide], the “adhesion-inhibiting activity, fold higher than any other enantiomer of the original 3:1 mixture” value on VLA-4 (PMI cells on VCAM-1, optical density read at 450 nm) is reported as 4 fold. On VLA-4 (conclusion from Examples 2 and 3 taken together), the “activity compared with the parent racemates (E-, Z-ajoenes and mixtures)” value is “significantly higher”. The “IC100 of syncytium formation” value in assay [1] was 12.5 micromoles per liter. Besides, the “activity as an integrin modulator relative to other enantiomers, racemic E-ajoene or the unseparated 3:1 mixture” value in assay [1] (summary statement in the description, covers Examples 2 and 3) is reported as “at least four times more active”. Further, in assay [1] (syncytium formation, FIG. 1 curves), the “activity relative to (Z)-(+) counterpart, racemic (E)-ajoene or the unseparated 3:1 mixture” value is given as “at least four times more active”. For the same compound, in assay [2], the “syncytium formation inhibition, result compared with the H9 system” value is recorded as “A similar result was obtained”.
Take `C=CCSS/C=C/C[S+]([O-])CC=C` (stereo not shown) [ajoene, 4,5,9-trithiadodeca-1,6,11-triene-9-oxide]: in assay [3], the “inhibition of adhesion-dependent processes” value was “potent inhibitor”. Further, in assay [4], the “effect on platelet aggregation” value was “inhibit platelet aggregation”.
